Test results: patent US12281304B2, “Compositions and methods for treating and preventing muscular disorders and dystrophies, steroid side effects, and inflammation” (Children's National Medical Center, priority 2018, dated 2025)

How the values were obtained:
miRNA sequences = conditions: known mechanism listed in Table 6; compounds will be tested; cited from earlier work
TLR7 = target: T1, TLR7 (Mus musculus, UniProt P58681); assay: Competition of TLR7 activation by uridine-deficient mutant miRNA in RAW 264.7 cells (secreted TNF-α); assay type: cell-based, murine; conditions: constant dose of parent miRNA with increasing doses of mutant, 48 hours
T1 construct: endogenous in cells; host or cells: RAW 264.7 murine macrophage cells
T1 sequence (P58681 27-1050): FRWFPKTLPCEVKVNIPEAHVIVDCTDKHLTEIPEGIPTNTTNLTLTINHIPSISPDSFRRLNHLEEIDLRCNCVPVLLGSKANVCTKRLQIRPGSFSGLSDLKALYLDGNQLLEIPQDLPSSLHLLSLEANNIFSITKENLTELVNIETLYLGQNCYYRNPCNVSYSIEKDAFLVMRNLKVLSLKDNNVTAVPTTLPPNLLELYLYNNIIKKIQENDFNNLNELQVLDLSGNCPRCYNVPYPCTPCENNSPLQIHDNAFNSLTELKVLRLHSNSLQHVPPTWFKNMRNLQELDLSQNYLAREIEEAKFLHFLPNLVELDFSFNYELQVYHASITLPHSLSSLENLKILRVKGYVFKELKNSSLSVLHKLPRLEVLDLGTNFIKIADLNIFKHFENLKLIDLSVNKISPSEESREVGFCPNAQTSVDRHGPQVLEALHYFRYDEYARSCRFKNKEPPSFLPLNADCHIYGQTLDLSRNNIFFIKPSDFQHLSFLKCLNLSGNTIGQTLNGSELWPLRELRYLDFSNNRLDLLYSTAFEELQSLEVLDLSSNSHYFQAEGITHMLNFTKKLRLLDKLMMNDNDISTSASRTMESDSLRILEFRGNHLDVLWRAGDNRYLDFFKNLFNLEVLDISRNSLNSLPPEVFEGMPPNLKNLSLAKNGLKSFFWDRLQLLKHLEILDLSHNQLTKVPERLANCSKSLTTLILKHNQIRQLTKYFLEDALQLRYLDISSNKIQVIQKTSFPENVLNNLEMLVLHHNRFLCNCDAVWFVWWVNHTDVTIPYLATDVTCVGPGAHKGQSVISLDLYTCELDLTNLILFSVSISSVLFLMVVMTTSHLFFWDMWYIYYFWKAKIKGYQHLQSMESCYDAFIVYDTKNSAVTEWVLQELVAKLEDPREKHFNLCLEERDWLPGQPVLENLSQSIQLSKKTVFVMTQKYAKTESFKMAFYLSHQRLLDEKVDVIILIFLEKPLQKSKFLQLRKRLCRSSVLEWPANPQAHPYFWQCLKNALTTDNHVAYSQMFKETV
Protocol: A) HEK 293 cells were transfected with a plasmid encoding TLR7-YFP (green) and either a Cy5-miR-146a mutant microRNA or Cy5-miR-142-3p mutant microRNA (red) […] post-transfection cells were fixed and confocal microscopy was performed using an Olympus FV-1000 at 100× magnification. […] B) RAW 264.7 murine macrophage cells were treated with a constant dose of miR-146a with increasing doses of a uridine-deficient miR-146a mutant. 48 hours later TLR7 activation was assessed via secreted TNF-α. […] C) RAW 264.7 murine macrophage cells were treated with a constant dose of […] with increasing doses of a uridine-deficient miR-142-3pmutant. 48 hours later TLR7 activation was assessed via secreted TNF-α.

Toll-like receptor 7 = target: T2, Toll-like receptor 7 (Mus musculus, UniProt P58681); assay: Secreted TNF-α (ALPHA-LISA) in RAW 264.7 macrophages treated with miRNAs (TLR7 activation); assay type: cell-based, murine; conditions: RAW 264.7 cells, 5 ug RNA, 6, 24 and 48 h
T2 construct: endogenous in cells; host or cells: RAW 264.7 murine macrophage cells
T2 sequence (P58681 27-1050): T1 sequence (P58681 27-1050)
Protocol: FIG. 11A-11C depict how miR-146a and miR-142-3p bind to and activate the inflammatory Toll-like receptor 7. 11A) RAW 264.7 murine macrophage cells were treated the indicated treatments for 6, 24 and 48 h: 1) negative CTRL (−)=no treatment; 2) Gardiquimod (3 ug/mL)=+control for TLR7 activation; 3) miR-146a (5 ug) sequence: […] (SEQ ID NO:70), 4) miR-142-3p (5 ug) […] (SEQ ID NO:71); 5) miR-146amut (5 ug, sequence: […] (SEQ ID NO:72)); 6) miR-142-3pmut (5 ug, sequence: […] (SEQ ID NO:73)). After the indicated timepoints, media was collected and an ALPHA-LISA was performed to measure the amount of secreted TNF-α. […] B) RAW 264.7 murine macrophage cells were treated with gardiquimod or the indicated microRNAs for 48 h, where peak activation was observed. Secreted TNF-α was assessed as in A) using an ALPHA-LISA. C) HEK 293 cells were transfected with a plasmid encoding TLR7-YFP (green) and either a Cy5-miR-146a or Cy5-miR-142-3p (red). 48 h post-transfection cells were fixed and confocal microscopy was performed using an Olympus FV-1000 at 100× magnification.

| Molecule | Activity (miRNA sequences) | competition of TLR7 activation by the parent miRNA (TLR7) | secretion of TNF-α (TLR7 activation) (Toll-like receptor 7) |
| --- | --- | --- | --- |
| COc1cc2nc(N3CCCN(C)CC3)nc(NC3CCN(Cc4ccccc4)CC3)c2cc1OC [BIX-01294] | G9a histone methyltransferase/ GLP histone methyltransferase (G9a/GLP) inhibitor |  |  |
| N[C@@H]1C[C@H]1c1ccccc1 [Tranyl- cypromine hemisulfate] | Lysine-specific demethylase 1 (LSD1/BHC110) inhibitor |  |  |
| Cc1ccc(-n2sc3ccccc3c2=O)cc1 [PBIT] | Jumanji AT-rich interactive domain 1 family of lysine demethylases (JARID1) inhibitor |  |  |
| miR-146amut: uridine-deficient mutant microRNA, sequence agagaacagaaaaccacgggaa (SEQ ID NO:72) (AGAGAACAGAAAACCACGGGAA; listed as DNA, chemistry not given here; listed as Homo sapiens) |  | can compete away the activation of TLR7 by miR-146a | prevents activation |
| O=C(O)CCNc1cc(N2CCc3ccccc3CC2)nc(-c2ccccn2)n1 [GSK-J1 (cell impermeable)] | Jumonji H3K27 histone demethylase (JMJD3/UTX) inhibitor |  |  |
| O=C(/C=C/c1cccnc1)NCCCCC1CCN(C(=O)c2ccccc2)CC1 [FK-866 HCI] | Nicotinamide phosphoribosyl- transferase (Nampt) inhibitor |  |  |
| COC(=O)CNC(=O)C(=O)OC [DMOG] | Prolyl hydroxylase domain- containing protein (PHD/JMJD2A) inhibitor |  |  |
| miR-142-3pmut: uridine-deficient mutant microRNA, sequence agaagagaaaccaacaaaaugga (SEQ ID NO:73) (AGAAGAGAAACCAACAAAAUGGA; listed as RNA, chemistry not given here; listed as Homo sapiens) |  | can compete away TLR7 activation | prevents activation |
| O=C(Nc1cccc(Br)c1)c1cccc(S(=O)(=O)N2CCCCCC2)c1 [AK-7] | NAD-dependent deacetylase sirtuin 2 (SIRT2) inhibitor |  |  |
| miR-142-3p: microRNA, sequence uguaguguuuccuacuuuaugga (SEQ ID NO:71) (UGUAGUGUUUCCUACUUUAUGGA; listed as RNA, chemistry not given here; listed as Homo sapiens) |  |  | activate secretion of TNF-α |
| CN(C)NC(=O)CCC(=O)O [Daminozide] | KDM2/KDM7 JmjC subfamily of histone demethylase inhibitor |  |  |
